No end group written: not given here.
How the values were obtained:
HLA-DRB1*1302 (DR6w19) = HLA-DRB1*1302 (DR6w19) (Homo sapiens, UniProt P01903+P01911, A100E/A169T/K41T/L162R/M171V/P40S/Q125H/Q178H/Q39Y/Q99D/R42S/S66N/T262R/V115G/W38E/Y61H); assay: purified HLA class II binding assay, DRB1*1302 (DR6w19); conditions: Table XXb, HIV DR 3a motif peptides
HLA-DRB1*0802 (DR8w2) = molecular target: T1, HLA-DRB1*0802 (DR8w2) (Homo sapiens, UniProt P01903+P01911, A100R/A103L/A169T/F76Y/H45Y/I96F/K41T/L162R/M171V/P40S/Q125H/Q178H/Q39Y/Q99D/R218S/R42G/S66Y/V115G/W38E); assay: biochemical; assay type: binding
T1 construct: endogenous in cells

HLA-DRB1*0701 (DR7) = molecular target: T2, HLA-DRB1*0701 (DR7) (Homo sapiens, UniProt P01903+P01911, A100R/A102G/A103Q/D57E/D86V/E43K/F76Y/K127E/L162R/M171V/P40G/Q125H/Q99D/R33Q/R42Y/R54Q/S133A/S66F/T210M/V115G/Y107V/Y59L/Y89S); assay: biochemical; assay type: binding
T2 construct: endogenous in cells; host or cells: Pitout

HLA-A*0201 = HLA-A*0201 (Homo sapiens, UniProt P04439, D140Y/D185E/D98H/E176V/E277Q/G131W/G231S/I119V/I121R/I166T/I218V/L300P/L318F/N151K/N90K/P208A/P217A/Q86G/Q94H/R138H/R169H/T345S); assay: purified HLA class I binding assay, A*0201
HLA-DRB1*0301 (DR3) = molecular target: T3, HLA-DRB1*0301 (DR3) (Homo sapiens, UniProt P01903+P01911, A100K/A102G/A103R/A169T/F55Y/I96L/K41T/L162R/M171V/P40S/Q125H/Q178H/Q39Y/R42S/S66N/T106N/T262R/W38E/Y61H); assay: purified HLA class II binding assay, DRB1*0301 (DR3), pH 4.5
T3 construct: endogenous in cells; host or cells: MAT

HLA-A*0206 = HLA-A*0206 (Homo sapiens, UniProt P04439, D140Y/D185E/D98H/E176V/E277Q/F33Y/G131W/G231S/I119V/I121R/I166T/I218V/L300P/L318F/N151K/N90K/P208A/P217A/Q86G/Q94H/R138H/R169H/T345S); assay: purified HLA class I binding assay, A*0206
HLA-A*0203 = HLA-A*0203 (Homo sapiens, UniProt P04439, A173T/D140Y/D185E/D98H/E277Q/G131W/G231S/I119V/I121R/I166T/I218V/L180W/L300P/L318F/N151K/N90K/P208A/P217A/Q86G/Q94H/R138H/R169H/T345S); assay: purified HLA class I binding assay, A*0203
HLA-A*0202 = HLA-A*0202 (Homo sapiens, UniProt P04439, D140Y/D185E/D98H/E176V/E277Q/G131W/G231S/I119L/I121R/I166T/I218V/L180W/L300P/L318F/N151K/N90K/P208A/P217A/Q67R/Q86G/Q94H/R138H/R169H/T345S); assay: purified HLA class I binding assay, A*0202
HLA-A*6802 = HLA-A*6802 (Homo sapiens, UniProt P04439, A269V/D140Y/D185E/E176V/E277Q/E87N/F33Y/G231S/I121R/I166T/I218V/L180W/L300P/L318F/N151K/P208A/P217A/Q86R/R138H/R169H/S129P/T345S/V36M); assay: purified HLA class I binding assay, A*6802
[1] = HIV A02 super motif peptides, Table VIII, unit not given

T3 sequence (P01903 26-254 partner, other chains not shown): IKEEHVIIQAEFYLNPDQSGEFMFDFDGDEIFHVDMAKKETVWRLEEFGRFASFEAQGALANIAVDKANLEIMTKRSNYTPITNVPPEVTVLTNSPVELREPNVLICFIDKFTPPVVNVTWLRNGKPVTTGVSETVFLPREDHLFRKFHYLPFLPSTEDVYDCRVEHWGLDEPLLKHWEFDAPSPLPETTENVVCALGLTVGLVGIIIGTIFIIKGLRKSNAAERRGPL

## IKQEFGIPY
HLA-DRB1*1302 (DR6w19)
  DR6w19 binding information: 0.0123
HLA-DRB1*0802 (DR8w2)
  DR8w2 binding information: −0.0009
HLA-DRB1*0701 (DR7)
  DR7 binding information: −0.0014

## VLAEAMSQV
HLA-A*0201; purified HLA-A*0201, unit not given
  A*0201 binding (HIV A02 Super Motif Peptides with Binding Information): 0.1100
HLA-DRB1*0701 (DR7)
  DR7 binding information: 0.0025

## KCQLKOEAMHGQVDC (KCQLKGEAMHGQVDC; HUMAN IMMUNO… VIRUS)
HLA-DRB1*0301 (DR3); Table XXb, HIV DR 3a motif peptides
  DR3 binding information: −0.0017

## CC[C@H](C)[C@H](NC(=O)[C@@H](NC(=O)CNC(=O)[C@H](CC(C)C)NC(=O)[C@H](C)NC(=O)[C@H](Cc1ccc(O)cc1)NC(=O)[C@H](CCC(N)=O)NC(=O)[C@H](CO)NC(=O)[C@H](CC(=O)O)NC(=O)[C@@H](NC(=O)[C@@H](NC(=O)[C@@H](NC(=O)[C@H](CC(N)=O)NC(=O)[C@@H](NC(=O)[C@@H](N)CCC(=O)O)C(C)C)[C@@H](C)CC)C(C)C)[C@@H](C)O)[C@@H](C)CC)C(=O)O [Peptide 35.0127]
HLA-DRB1*0301 (DR3)
  IC50: 0.732 µM

## CSCC[C@H](N)C(=O)N[C@@H](C)C(=O)N[C@@H](CO)C(=O)N[C@@H](CC(=O)O)C(=O)N[C@@H](Cc1ccccc1)C(=O)N[C@@H](CC(N)=O)C(=O)N[C@@H](CC(C)C)C(=O)N1CCC[C@H]1C(=O)N1CCC[C@H]1C(=O)N[C@H](C(=O)O)C(C)C [Peptide 1261.15]
HLA-A*0206
  IC50: 0.0336 µM
HLA-A*0203
  IC50: 0.0556 µM
HLA-A*0202
  IC50: 0.0226 µM
HLA-A*6802
  IC50: 0.0182 µM

## FYVDGAANR
HLA-DRB1*1302 (DR6w19)
  DR6w19 binding information: −0.0002
HLA-DRB1*0802 (DR8w2)
  DR8w2 binding information: 0.0035
HLA-DRB1*0701 (DR7)
  DR7 binding information: −0.0014

## QLLFIIIFRI
HLA-A*0206; [1]
  A*0206 binding: 0.0023
HLA-A*0203; [1]
  A*0203 binding: 0.0004
HLA-A*0201; [1]
  A*0201 binding: 0.0530
HLA-A*0202; [1]
  A*0202 binding: 0.0002
HLA-A*6802; [1]
  A*6802 binding: 0.0840

## GAVVIQDNSDLKVVP [Peptide 35.0133]
HLA-DRB1*0301 (DR3)
  IC50: 1 µM

## CC[C@H](C)[C@H](NC(=O)[C@H](Cc1ccccc1)NC(=O)[C@H](CC(C)C)NC(=O)[C@H](CC(C)C)NC(=O)[C@H](CCC(N)=O)NC(=O)[C@H](CCC(N)=O)NC(=O)[C@H](CC(C)C)NC(=O)[C@@H](NC(=O)[C@@H](N)CCCNC(=N)N)[C@@H](C)CC)C(=O)O [Peptide 1261.12]
HLA-A*0206
  IC50: 0.037 µM
HLA-A*0201
  IC50: 0.0192 µM
HLA-A*6802
  IC50: 1.82 µM

## FLQSRPEPT [25.0037]
HLA-A*0203
  IC50: 0.0323 µM

## IVTDSQYAL
HLA-A*0201; [1]
  A*0201 (binding information): 0.0024
HLA-DRB1*1302 (DR6w19)
  DR6w19 binding information: 0.0108
HLA-DRB1*0802 (DR8w2)
  DR8w2 binding information: −0.0009
HLA-DRB1*0701 (DR7)
  DR7 binding information: −0.0014

## CC[C@H](C)[C@H](NC(=O)[C@@H]1CCCN1C(=O)[C@@H]1CCCN1C(=O)[C@H](CC(N)=O)NC(=O)[C@H](CC(N)=O)NC(=O)[C@@H](NC(=O)[C@@H](N)CCSC)[C@@H](C)O)C(=O)N1CCC[C@H]1C(=O)N[C@H](C(=O)O)C(C)C [Peptide 1261.03]
HLA-A*0202
  IC50: 7.17 µM
HLA-A*6802
  IC50: 0.0121 µM

## CTEMEKBGKISKIGP
HLA-DRB1*0301 (DR3); Table XXd, HIV DR 3b motif peptides
  DR3 binding information: 0.0110

## CC[C@H](C)[C@H](NC(=O)[C@H](CC(N)=O)NC(=O)[C@@H](NC(=O)[C@@H]1CCCN1C(=O)[C@@H](NC(=O)[C@@H]1CCCN1C(=O)CNC(=O)[C@@H](NC(=O)[C@@H](N)CC(C)C)C(C)C)[C@@H](C)O)C(C)C)C(=O)O [Peptide 1261.09]
HLA-A*0206
  IC50: 2.85 µM
HLA-A*0203
  IC50: 0.0192 µM
HLA-A*6802
  IC50: 0.0678 µM

## VVEEKAFSP
HLA-DRB1*0701 (DR7)
  DR7 binding information: 0.0003

## CC[C@H](C)[C@H](NC(=O)[C@H](C)N)C(=O)N[C@H](C(=O)N[C@@H](CCCNC(=N)N)C(=O)N[C@H](C(=O)N[C@@H](CC(C)C)C(=O)N[C@@H](CCC(N)=O)C(=O)N[C@@H](CCC(N)=O)C(=O)N[C@@H](CC(C)C)C(=O)O)[C@@H](C)CC)[C@@H](C)CC [Peptide 1261.11]
HLA-A*0206
  IC50: 0.0385 µM
HLA-A*0202
  IC50: 0.0226 µM
HLA-A*6802
  IC50: 0.548 µM

## IDPENPYNT
HLA-DRB1*0701 (DR7)
  DR7 binding information: −0.0005

## CC(C)C[C@H](NC(=O)[C@H](CCCCN)NC(=O)[C@H](Cc1ccccc1)NC(=O)[C@H](CS)NC(=O)[C@H](Cc1c[nH]c2ccccc12)NC(=O)CNC(=O)[C@H](Cc1ccccc1)NC(=O)[C@@H](NC(=O)[C@@H](N)CC(C)C)[C@@H](C)O)C(=O)N[C@H](C(=O)O)C(C)C [Peptide 1261.14]
HLA-A*0202
  IC50: 0.0489 µM
HLA-A*6802
  IC50: 0.0062 µM

Source: US20050271676A1, “Inducing cellular immune responses to human immunodeficiency virus-1 using peptide and nucleic acid compositions” (Epimmune Inc., priority 1993, published 2005)
